Patent US20090142411A1, “Composition and Device Comprising an Inorganic Component (Metal Compound) for Coagulation of Protein-Containing Fluids” (SMITH & NEPHEW, PLC, priority 2005, published 2009)

What was measured:
[1] = coagulation of whole human blood; settings: 1-5 μl aliquots of 350 mg/ml solution, 100 μl whole human blood
Procedure: Examples 4-9 were repeated with 100 μl whole human blood in place of the bovine serum albumin solution.

[2] = coagulation of heat-inactivated foetal calf serum
Procedure: (§1) The oxide powder was allowed to settle to the bottom of the vessel (0.5 ml capacity Eppendorf tube) and was left undisturbed for 2 hours. […] The vessel was left undisturbed for 24 h.

[3] = coagulation of whole human saliva; settings: 5 gi aliquot of 350 mg/ml solution in PBS pH 7.4, 100 μl whole human saliva, 30 minutes
Procedure: (§2) The vessel was left undisturbed for 30 minutes.

gelatine = experiment: coagulation of gelatine solution; settings: 5 μl aliquot of 350 mg/ml solution, 100 μl gelatine solution 40 mg/ml in PBS, immediately
[4] = coagulation of chronic wound fluid
Procedure: as §1

bovine serum albumin = bovine serum albumin (Bos taurus, UniProt P02769); experiment: coagulation of bovine serum albumin solution; settings: 10 mg powder in 100 μl bovine serum albumin 40 mg/ml in PBS pH 7.4, undisturbed 2 hours
Sequence of bovine serum albumin (P02769 25-607): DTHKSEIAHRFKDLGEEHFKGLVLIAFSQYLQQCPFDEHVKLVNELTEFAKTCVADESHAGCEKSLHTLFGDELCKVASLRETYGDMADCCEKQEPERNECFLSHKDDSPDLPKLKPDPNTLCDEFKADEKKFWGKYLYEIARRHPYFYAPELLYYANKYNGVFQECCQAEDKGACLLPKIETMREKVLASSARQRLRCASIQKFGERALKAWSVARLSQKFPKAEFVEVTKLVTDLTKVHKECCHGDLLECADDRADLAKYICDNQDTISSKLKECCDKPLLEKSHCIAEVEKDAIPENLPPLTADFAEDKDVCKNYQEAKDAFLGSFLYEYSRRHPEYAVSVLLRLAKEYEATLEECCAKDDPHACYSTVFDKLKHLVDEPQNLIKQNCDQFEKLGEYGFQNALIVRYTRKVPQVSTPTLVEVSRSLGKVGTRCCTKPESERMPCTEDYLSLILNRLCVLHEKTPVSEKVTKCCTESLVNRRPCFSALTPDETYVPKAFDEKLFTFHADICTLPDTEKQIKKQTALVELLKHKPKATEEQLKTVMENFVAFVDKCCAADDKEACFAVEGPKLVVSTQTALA
Procedure: The oxide powder was allowed to settle to the bottom of the vessel (0.5 ml capacity Eppendorf tube) and was left undisturbed for 2 hours.
as §2, §2, §2, §2, §2
The vessel was left undisturbed for 24 h.

Substance	coagulation, Examples 4-9 repeated [1]	coagulation, Examples 4-9 repeated ([2]; 1-5 μl aliquots of 350 mg/ml solution, 100 μl heat-inactivated foetal calf serum)	coagulation ([2]; 5 μl aliquot of 350 mg/ml solution, heat-inactivated foetal calf serum, 1.0 ml syringe, 24 h)	coagulation [3]	coagulation / precipitate formation (gelatine)	coagulation, Examples 4-9 repeated ([4]; 1-5 μl aliquots of 350 mg/ml solution, 100 μl chronic wound fluid)	coagulation ([4]; 5 μl aliquot of 350 mg/ml solution, chronic wound fluid, 1.0 ml syringe, 24 h)	coagulation ([2]; 10 mg powder in 100 μl heat-inactivated foetal calf serum, undisturbed 2 hours)	coagulation (bovine serum albumin)	coagulation ([4]; 10 mg powder in 100 μl chronic wound fluid, overnight)	coagulation ([4]; 10 mg powder in 100 μl chronic wound fluid, undisturbed 2 hours)
gold (III) chloride	The results were the same	The results were the same	the fluid coagulated	a lightly coagulated, opaque mass of several millimetres thickness was formed	a fibrous precipitate was formed	The results were the same	the fluid coagulated	–	–	–	–
gold (III) oxide [gold (III) oxide powder]	–	–	–	–	–	–	–	a coagulated, opaque mass of several millimetres thickness was formed	a coagulated, opaque mass of several millimetres thickness was formed	the entire fluid volume had coagulated	a coagulated, opaque mass of several millimetres thickness was formed
